Measurements: patent publication US8404670B2 (Sunovion Pharmaceuticals Inc., priority 2009, dated 2013)

Molecular target: T1, human histamine H3 receptor (Homo sapiens, UniProt Q9Y5N1)
T1 construct: host or cells: cells expressing the human H3 receptor
Experiment: H3 GTPγS assay (SPA method), histamine H3 in vitro assay
Assay type: biochemical
Conditions: GTPγ[35S] binding to membranes of cells expressing human H3; antagonist mode with R-γ-Me-Histamine at EC80 (30 nM); in one embodiment HCl salts tested; read-out: Potency (functional potency as indicated by IC50)

T1 sequence (Q9Y5N1 whole entry): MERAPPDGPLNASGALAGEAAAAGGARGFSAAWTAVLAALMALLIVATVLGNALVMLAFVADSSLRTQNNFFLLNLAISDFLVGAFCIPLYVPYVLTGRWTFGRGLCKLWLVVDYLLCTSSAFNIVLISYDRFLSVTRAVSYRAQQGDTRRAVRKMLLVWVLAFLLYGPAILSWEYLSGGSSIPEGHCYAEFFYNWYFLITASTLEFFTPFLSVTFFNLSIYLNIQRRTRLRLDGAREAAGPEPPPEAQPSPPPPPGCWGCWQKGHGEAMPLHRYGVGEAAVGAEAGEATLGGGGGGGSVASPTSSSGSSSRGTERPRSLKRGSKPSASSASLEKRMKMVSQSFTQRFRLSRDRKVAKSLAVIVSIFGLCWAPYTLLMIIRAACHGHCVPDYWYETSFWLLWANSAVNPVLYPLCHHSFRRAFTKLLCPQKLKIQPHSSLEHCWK

Compound | IC50
c1cc(-c2ccc3c(c2)nc2n3CCN(C3CCC3)CC2)nc(N2CCCC2)c1 [Compound 135, 3-cyclobutyl-8-(6-(pyrrolidin-1-yl)pyridin-2-yl)-2,3,4,5-tetrahydro-1H-benzo[4,5]imidazo[1,2-d][1,4]diazepine] | ≤ 100 nM
c1cc2c(cc1-c1ccc3cncn3c1)nc1n2CCN(C2CCC2)CC1 [Compound 198, 3-cyclobutyl-8-(imidazo[1,5-a]pyridin-6-yl)-2,3,4,5-tetrahydro-1H-benzo[4,5]imidazo[1,2-d][1,4]diazepine] | ≤ 10 nM
N#Cc1ccc(OCc2ccc3c(c2)nc2n3CCN(C3CCC3)CC2)nc1 [Compound 108, 6-((3-cyclobutyl-2,3,4,5-tetrahydro-1H-[1,4]diazepino[1,7-a]benzimidazol-9-yl)methoxy)nicotino-nitrile] | ≤ 100 nM
c1cc2c(cc1CN1CCCC1)nc1n2CCN(C2CCC2)CC1 [Compound 75] | ≤ 10 nM
CC(C1CCC1)N1CCc2nc3cc(Cl)ccc3n2CC1 (centres unmarked) [Compound 11] | ≥ 1000 nM
O=C1c2cc3nc4n(c3cc2C(=O)N1Cc1ccccc1)CCN(C1CCC1)CC4 [Compound 143, 2-benzyl-8-cyclobutyl-7,8,9,10-tetrahydro-[1,4]diazepino[1′,7′:1,2]imidazo[4,5-f]isoindole-1,3(2H,6H)-dione] | ≥ 1000 nM
CC(=O)Nc1ccc(-c2ccc3c(c2)nc2n3CCN(C(C)C3CCC3)CC2)cc1 (centres unmarked) [Compound 7] | ≤ 1000 nM
NCCc1ccc2c(c1)nc1n2CCN(C2CCC2)CC1 [Compound 138, 2-(3-cyclobutyl-2,3,4,5-tetrahydro-1H-benzo[4,5]imidazo[1,2-d][1,4]diazepin-8-yl)ethanamine] | ≤ 100 nM
c1cc(-c2ccc3c(c2)nc2n3CCN(C3CCC3)CC2)cnn1 [Compound 127, 3-cyclobutyl-8-(pyridazin-4-yl)-2,3,4,5-tetrahydro-1H-benzo[4,5]imidazo[1,2-d][1,4]diazepine] | ≤ 100 nM
O=C(c1ccc2nc3n(c2c1)CCN(C1CCC1)CC3)N1CCOCC1 [Compound 84] | ≤ 1000 nM
N#Cc1ccc(NC(=O)c2ccc3c(c2)nc2n3CCN(C3CCC3)CC2)cc1 [Compound 61, 3-cyclobutyl-N-(4-cyanophenyl)-2,3,4,5-tetrahydro-1H-[1,4]diazepino[1,7-a]benzimidazole-9-carboxamide] | ≤ 100 nM
c1cc(-c2ccc3c(c2)nc2n3CCN(C3CCC3)CC2)ncn1 [Compound 124, 3-cyclobutyl-8-(pyrimidin-4-yl)-2,3,4,5-tetrahydro-1H-benzo[4,5]imidazo[1,2-d][1,4]diazepine] | ≤ 100 nM
Cc1nc2ccccc2n1-c1ccc2c(c1)nc1n2CCN(C2CCC2)CC1 [Compound 207, 3-cyclobutyl-8-(2-methyl-1H-benzo[d]imidazol-1-yl)-2,3,4,5-tetrahydro-1H-benzo[4,5]imidazo[1,2-d][1,4]diazepine] | ≤ 10 nM
c1cc2c(cc1N1CCC(N3CCOCC3)CC1)nc1n2CCN(C2CCC2)CC1 [Compound 225, 4-(1-(3-cyclobutyl-2,3,4,5-tetrahydro-1H-benzo[4,5]imidazo[1,2-d][1,4]diazepin-8-yl)piperidin-4-yl)morpholine] | ≤ 10 nM
OCc1ccc2nc3n(c2c1)CCN(C1CCC1)CC3 [Compound 110, 2-(3-cyclobutyl-2,3,4,5-tetrahydro-1H-[1,4]diazepino[1,7-a]benzimidazol-8-yl)methanol] | ≤ 1000 nM
Cc1nnnn1-c1ccc2c(c1)nc1n2CCN(C2CCC2)CC1 [Compound 156, 3-cyclobutyl-8-(5-methyl-1H-tetrazol-1-yl)-2,3,4,5-tetrahydro-1H-benzo[4,5]imidazo[1,2-d][1,4]diazepine] | ≤ 100 nM
O=C(c1ccc2c(c1)nc1n2CCN(C2CCC2)CC1)N1CCOCC1 [Compound 56] | ≤ 100 nM
c1cc2c(cc1CN1CCOCC1)nc1n2CCN(C2CCC2)CC1 [Compound 74, 3-cyclobutyl-9-(morpholin-1-ylmethyl)-2,3,4,5-tetrahydro-1H-[1,4]diazepino[1,7-a]benzimidazole] | ≤ 10 nM
O=C(c1cnccn1)N1CCN(c2ccc3c(c2)nc2n3CCN(C3CCC3)CC2)CC1 [Compound 169, (4-(3-cyclobutyl-2,3,4,5-tetrahydro-1H-benzo[4,5]imidazo[1,2-d][1,4]diazepin-8-yl)piperazin-1-yl)(pyrazin-2-yl)methanone] | ≤ 100 nM
c1cc2nc3n(c2cc1-c1cn[nH]c1)CCN(C1CCC1)CC3 [Compound 49, 3-cyclobutyl-9-(1H-pyrazol-4-yl)-2,3,4,5-tetrahydro-1H-[1,4]diazepino[1,7-a]benzimidazole] | ≤ 1000 nM
O=c1cccnn1-c1ccc2c(c1)nc1n2CCN(C2CCC2)CC1 [Compound 71, 2-(3-cyclobutyl-2,3,4,5-tetrahydro-1H-[1,4]diazepino[1,7-a]benzimidazol-9-yl)pyridazin-3(2H)-one] | ≤ 1000 nM
NCc1ccc(-c2ccc3c(c2)nc2n3CCN(Cc3cnc[nH]3)CC2)cc1 [Compound 17] | ≥ 1000 nM

Compound | IC50
c1cnnc(-c2ccc3c(c2)nc2n3CCN(C3CCC3)CC2)c1 [Compound 125, 3-cyclobutyl-8-(pyridazin-3-yl)-2,3,4,5-tetrahydro-1H-benzo[4,5]imidazo[1,2-d][1,4]diazepine] | ≤ 100 nM
COc1ccc(-c2ccc3c(c2)nc2n3CCN(C3CCC3)CC2)nn1 [Compound 134, 3-cyclobutyl-8-(6-methoxypyridazin-3-yl)-2,3,4,5-tetrahydro-1H-benzo[4,5]imidazo[1,2-d][1,4]diazepine] | ≤ 100 nM
Cc1nc2ccc(F)cc2n1-c1ccc2c(c1)nc1n2CCN(C2CCC2)CC1 [Compound 208, 3-cyclobutyl-8-(6-fluoro-2-methyl-1H-benzo[d]imidazol-1-yl)-2,3,4,5-tetrahydro-1H-benzo[4,5]imidazo[1,2-d][1,4]diazepine] | ≤ 10 nM
c1cncc(-c2ccc3c(c2)nc2n3CCN(C3CCC3)CC2)c1 [Compound 115, 3-cyclobutyl-9-(pyridin-3-yl)-2,3,4,5-tetrahydro-1H-[1,4]diazepino[1,7-a]benzimidazole] | ≤ 100 nM
CC(=O)N1CCc2cc3nc4n(c3cc2C1)CCN(C1CCC1)CC4 [Compound 194, 1-(9-cyclobutyl-3,4,8,9,10,11-hexahydro-1H-[1,4]diazepino[1′,7′:1,2]imidazo[4,5-g]isoquinolin-2(7H)-yl)ethanone] | ≤ 100 nM
Fc1ccc2c(c1)CCN(Cc1ccc3c(c1)nc1n3CCN(C3CCC3)CC1)C2 [Compound 164, 3-cyclobutyl-8-((6-fluoro-3,4-dihydroisoquinolin-2(1H)-yl)methyl)-2,3,4,5-tetrahydro-1H-benzo[4,5]imidazo[1,2-d][1,4]diazepine] | ≤ 10 nM
O=C(c1ccc2nc3n(c2c1)CCN(C1CCC1)CC3)N1CCCC1 [Compound 86] | ≤ 1000 nM
c1cn(-c2ccc3c(c2)nc2n3CCN(C3CCC3)CC2)cn1 [Compound 66] | ≤ 10 nM
CN1CCN(c2cnc(-c3ccc4c(c3)nc3n4CCN(C4CCC4)CC3)cn2)CC1 [Compound 92, 3-cyclobutyl-9-(5-(4-methylpiperazin-1-yl)pyrazin-2-yl)-2,3,4,5-tetrahydro-1H-[1,4]diazepino[1,7-a]benzimidazole] | ≤ 10 nM
O=C(C1CCC1)N1CCc2cc3nc4n(c3cc2C1)CCN(C1CCC1)CC4 [Compound 191, cyclobutyl(9-cyclobutyl-3,4,8,9,10,11-hexahydro-1H-[1,4]diazepino[1′,7′:1,2]imidazo[4,5-g]isoquinolin-2 (7H)-yl)methanone] | ≤ 100 nM
c1cc2c(cc1C1CCCN(C3CCC3)C1)nc1n2CCN(C2CCC2)CC1 (centres unmarked) [Compound 128, 3-cyclobutyl-8-(1-cyclobutylpiperidin-3-yl)-2,3,4,5-tetrahydro-1H-benzo[4,5]imidazo[1,2-d][1,4]diazepine] | ≤ 10 nM
CN(C)C(=O)c1ccc2nc3n(c2c1)CCN(C1CCC1)CC3 [Compound 85] | ≥ 1000 nM
N#Cc1ccc2c(c1)nc1n2CCN(C2CCC2)CC1 [Compound 54] | ≤ 1000 nM
Cc1cn2cc(-c3ccc4c(c3)nc3n4CCN(C4CCC4)CC3)ccc2n1 [Compound 195, 3-cyclobutyl-8-(2-methylimidazo[1,2-a]pyridin-6-yl)-2,3,4,5-tetrahydro-1H-benzo[4,5]imidazo[1,2-d][1,4]diazepine] | ≤ 10 nM
N#Cc1ccc(C(=O)N2CCCC(c3ccc4c(c3)nc3n4CCN(C4CCC4)CC3)C2)cc1 (centres unmarked) [Compound 172, 4-(3-(3-cyclobutyl-2,3,4,5-tetrahydro-1H-benzo[4,5]imidazo[1,2-d][1,4]diazepin-8-yl)piperidine-1-carbonyl)benzonitrile] | ≤ 100 nM
FC1CCN(Cc2ccc3c(c2)nc2n3CCN(C3CCC3)CC2)CC1 [Compound 159, 3-cyclobutyl-8-((4-fluoropiperidin-1-yl)methyl)-2,3,4,5-tetrahydro-1H-benzo[4,5]imidazo[1,2-d][1,4]diazepine] | ≤ 10 nM
CN1CCC(N2CCc3nc4cc(-c5ccc6[nH]ccc6c5)ccc4n3CC2)CC1 [Compound 13] | ≥ 1000 nM
N#Cc1ccc(-c2ccc3c(c2)nc2n3CCN(C3CCC3)CC2)cc1 [Compound 2] | ≤ 10 nM
COc1nccc(-c2ccc3c(c2)nc2n3CCN(C3CCC3)CC2)n1 [Compound 132, 3-cyclobutyl-8-(2-methoxypyrimidin-4-yl)-2,3,4,5-tetrahydro-1H-benzo[4,5]imidazo[1,2-d][1,4]diazepine] | ≤ 100 nM
c1cnc(N2CCCC(c3ccc4c(c3)nc3n4CCN(C4CCC4)CC3)C2)nc1 (centres unmarked) [Compound 130, 3-cyclobutyl-8-(1-(pyrimidin-2-yl)piperidin-3-yl)-2,3,4,5-tetrahydro-1H-benzo[4,5]imidazo[1,2-d][1,4]diazepine] | ≤ 100 nM
c1c2c(cc3c1nc1n3CCN(C3CCC3)CC1)CNC2 [Compound 145, 8-cyclobutyl-1,2,3,6,7,8,9,10-octahydro-[1,4]diazepino[1′,7′:1,2]imidazo[4,5-f]isoindole] | ≤ 10 nM
c1ccc(CN2Cc3cc4nc5n(c4cc3C2)CCN(C2CCC2)CC5)cc1 [Compound 144, 2-benzyl-8-cyclobutyl-1,2,3,6,7,8,9,10-octahydro-[1,4]diazepino[1′,7′:1,2]imidazo[4,5-f]isoindole] | ≤ 10 nM
